In US20120052017A1, “METHOD FOR PRODUCING CONTRAST AGENT FOR OPTICAL IMAGING” (CANON KABUSHIKI KAISHA, priority 2010, published 2012):

What was measured:
[1] = Solubility of ICG in dichloromethane when phospholipid was added; format: physicochemical; conditions: phospholipid not added; inferred by comparison with ICG-methanol solution
Method: 2 molar equivalents of a phospholipid was added to 5.5 mg of ICG. As the phospholipid, DSPC or DOPE was used. Each of these ICG-phospholipid mixtures was dissolved in 2 mL of dichloromethane. Controls were brepared by dissolving in 10 G in methanol or dichloromethane. All these 10 G solutions were filtered with a filter having a pore size of 0.2 μm and then diluted 500-fold with dichloromethane.

[2] = Composition ratio of DSPC and ICG: ICG dissolved in chloroform; format: physicochemical; conditions: 47.2 mM DSPC in the ICG chloroform solution
Method: 0.5, 1 or 2 Molar Equivalents of DSPC was Added to 55 mg of ICG.
3 mL of chloroform was added to each of these ICG-DSPC mixtures. The mixtures were heated at 40° C. for two minutes, and ultrasonic irradiation was performed for one minute. […] These suspensions were filtered with a filter having a pore size of 0.45 μm to remove insoluble matters. Each of the filtrates was diluted 3000-fold with methanol.

Question: With CC1(C)C(/C=C/C=C/C=C/C=C2/N(CCCCS(=O)(=O)[O-])c3ccc4ccccc4c3C2(C)C)=[N+](CCCCS(=O)(=O)[O-])c2ccc3ccccc3c21.[Na+] [ICG, indocyanine green] as the compound, how does the “ICG dissolved in dichloromethane” value [1] read?
Answer: Its value is “approximately 0.6 mM”.

Question: What about the “concentration of ICG dissolved” value [2] of the same compound?
Answer: The value was 15.7 mM.
